Results: EP4603105A1, “PHARMACEUTICAL COMPOSITION CONTAINING CYCLIC COMPOUND HAVING SELECTIVE KRAS INHIBITORY EFFECT AGAINST HRAS AND NRAS” (CHUGAI SEIYAKU KABUSHIKI KAISHA, priority 2022, dated 2024)

Experiments:
[1] = target: GDP-bound NRAS wild-type protein (Homo sapiens, UniProt P01111); test: Binding to NRAS by surface plasmon resonance (SPR), KD and KD ratio to KRAS
In short: (§1)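 Captured GDP-RAS (~100–300 RU) was exposed to increasing compound concentrations, 75 s per step, in running buffer with 10 µM GDP, 10 mM MgCl2 and 4% DMSO at pH 7.4.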

[2] = target: HRAS wild-type protein (Homo sapiens, UniProt P01112); test: Binding to HRAS by surface plasmon resonance (SPR), KD and KD ratio to KRAS
In short: as §1

[3] = tested on: human lung cancer strain NCI-H441; type: cell-based
In short: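 Step one: dispense the test compound in serial DMSO dilutions. Step three: add the reagent and measure […].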

[4] = ratio of KD for GDP-bound NRAS wild-type protein to KD for KRAS
[5] = ratio of KD for HRAS wild-type protein to KD for KRAS
[6] = ratio of KD value for GDP-bound NRAS wild-type protein to KD value for KRAS (SPR)
[7] = ratio of KD value for HRAS wild-type protein to KD value for KRAS (SPR)

Sequence of HRAS wild-type protein (P01112 whole entry): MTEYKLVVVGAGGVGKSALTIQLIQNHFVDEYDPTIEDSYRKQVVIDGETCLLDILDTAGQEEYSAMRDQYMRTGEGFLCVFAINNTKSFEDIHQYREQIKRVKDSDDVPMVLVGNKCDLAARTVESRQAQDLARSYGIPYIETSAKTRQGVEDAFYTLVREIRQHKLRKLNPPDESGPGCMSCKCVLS
Sequence of GDP-bound NRAS wild-type protein (P01111 whole entry): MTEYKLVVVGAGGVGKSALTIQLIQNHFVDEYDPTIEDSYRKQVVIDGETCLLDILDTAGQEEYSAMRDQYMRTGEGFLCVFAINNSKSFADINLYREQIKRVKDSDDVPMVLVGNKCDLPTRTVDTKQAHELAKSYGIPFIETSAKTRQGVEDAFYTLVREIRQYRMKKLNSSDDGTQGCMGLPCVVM

Row | SMILES | NRAS /KRAS [1, 4] | HRAS /KRAS [2, 5] | IC50 [3] | NRAS /KRAS [1, 6] | HRAS /KRAS [2, 7] | NRAS /KRAS ([1]; ratio of the KD value with respect to GDP-bound NRAS wild-type protein to the KD value with respect to KRAS) | HRAS /KRAS ([2]; ratio of the KD value with respect to HRAS wild-type protein to the KD value with respect to KRAS)
1 | CCO[C@@H]1C[C@H]2C(=O)NC3(CCCC3)C(=O)N(C)[C@@H](C3CCCC3)C(=O)N(C)[C@H](C(=O)N3CCOCC3)CC(=O)N(C)[C@@H](CC)C(=O)N[C@@H]([C@@H](C)CC)C(=O)N(C)CC(=O)N(C)[C@H]3C[C@@H](C)CCN(C3=O)[C@@H](Cc3ccc(C(F)(F)F)cc3)C(=O)N(C)CC(=O)N[C@@H](CCc3cc(F)c(C(F)(F)F)c(F)c3)C(=O)N2C1 [PP1029] | C (A compound having a KD ratio of 0.1 or more and less than 3 is denoted as C) | B (a compound having 3 or more and less than 10 is denoted as B) | 24.3 nM |  |  |  | 
2 | CC[C@H](C)[C@@H]1NC(=O)[C@H](CC(C)C)N(C)C(=O)C[C@@H](C(=O)N(CC)CC)N(C)C(=O)[C@H](C2CCCC2)N(C)C(=O)C2(CCC2)NC(=O)[C@@H]2C[C@H](C)CN2C(=O)[C@H](CCc2ccc(C(F)(F)F)c(OC)c2)NC(=O)CN(C)C(=O)[C@H](Cc2ccc(C)cc2)N2CC/C=C\C[C@@H](C2=O)N(C)C(=O)CN(C)C1=O [PP1885] |  |  | 18.3 nM | AA (a compound having 20 or more is denoted as AA) | A (a compound having 10 or more and less than 20 is denoted as A) |  | 
3 | CCCOC[C@H]1C(=O)N[C@@H]([C@@H](C)CC)C(=O)N(C)CC(=O)N(C)[C@H]2C/C=C\CCN(C2=O)[C@@H](Cc2ccc(C(F)(F)F)cc2)C(=O)N(C)CC(=O)N[C@@H](CCc2cc(F)c(C(F)(F)F)c(F)c2)C(=O)N2C[C@H](F)C[C@H]2C(=O)NC2(CC(C)(C)C2)C(=O)N(C)[C@@H](C2CCCC2)C(=O)N(C)[C@H](C(=O)N(C)CC)CC(=O)N1C [PP1697] |  |  | 3.6 nM | A (a compound having 10 or more and less than 20 is denoted as A) | A (a compound having 10 or more and less than 20 is denoted as A) |  | 
4 | CCO[C@@H]1C[C@H]2C(=O)NC3(CC(C)(C)C3)C(=O)N(C)[C@@H](C(CC)CC)C(=O)N(C)[C@H](C(=O)N3CCCC3)CC(=O)N(C)[C@@H](CC)C(=O)N[C@@H]([C@@H](C)CC)C(=O)N(C)CC(=O)N(C)[C@H]3C/C=C\CCN(C3=O)[C@@H](Cc3ccc(C)cc3)C(=O)N(C)CC(=O)N[C@@H](CCc3cc(F)c(C(F)(F)F)c(F)c3)C(=O)N2C1 [PP2149] |  |  | 17.7 nM |  |  | A (a compound having 10 or more and less than 20 is denoted as A) | A (a compound having 10 or more and less than 20 is denoted as A)
5 | CCC[C@H]1C(=O)N[C@@H]([C@@H](C)CC)C(=O)N(C)CC(=O)N(C)[C@H]2C/C=C\CCN(C2=O)[C@@H](Cc2ccc(C(F)(F)F)cc2)C(=O)N(C)CC(=O)N[C@@H](CCc2ccc(Cl)c(Cl)c2)C(=O)N2C[C@H](OCC)C[C@H]2C(=O)NC2(CC(C)(C)C2)C(=O)N(C)[C@@H](CC2CC2)C(=O)N(C)[C@H](C(=O)N(C)C)CC(=O)N1C [PP2811] | A (a compound having 10 or more and less than 20 is denoted as A) | A (a compound having 10 or more and less than 20 is denoted as A) | 100 nM |  |  |  | 
6 | CC[C@H](C)[C@@H]1NC(=O)[C@H](COC)N(C)C(=O)C[C@@H](C(=O)N(C)C)N(C)C(=O)[C@H](C2CCCC2)N(C)C(=O)C2(CC(C)(C)C2)NC(=O)[C@@H]2CC(F)(F)CN2C(=O)[C@H](CCc2cc(F)c(C(F)(F)F)c(F)c2)NC(=O)CN(C)C(=O)[C@H](Cc2ccc(C(F)(F)F)cc2)N2CC/C=C\C[C@@H](C2=O)N(C)C(=O)CN(C)C1=O [PP1717] |  |  | 2.4 nM | A (a compound having 10 or more and less than 20 is denoted as A) | A (a compound having 10 or more and less than 20 is denoted as A) |  | 
7 | CCC[C@H]1C(=O)N[C@@H]([C@@H](C)CC)C(=O)N(C)CC(=O)N(C)[C@H]2C/C=C\CCN(C2=O)[C@@H](Cc2ccc(C)cc2)C(=O)N(C)CC(=O)N[C@@H](CCc2cc(F)c(C(F)(F)F)c(F)c2)C(=O)N2C[C@H](OCC)C[C@H]2C(=O)NC2(CC(C)(C)C2)C(=O)N(C)[C@@H](CC(F)(F)F)C(=O)N(C)[C@H](C(=O)N(C)C)CC(=O)N1C [PP2993] | A (a compound having 10 or more and less than 20 is denoted as A) | A (a compound having 10 or more and less than 20 is denoted as A) | 14.1 nM |  |  |  | 
